From ChEMBL document CHEMBL1201862, “PubChem BioAssay data set” (2004)
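Dose response: 5 concentrations. Exposure: 48 h. Format: 96-well plates. Endpoint: linear interpolation; highest concentration if not reached. GI50 is the concentration that inhibits growth by half.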 Activity calls are given as the source filed them. No stated cut-off is given here; in the data, active = GI50 up to about 1.1 µM and inactive = higher. Positions of bridges follow the written chain, without caps; N, C: chain ends. Residues, ends and D or L forms follow the SMILES beside them. Peptide text beside a SMILES is read from it.

Columns and labels:
Assay in all cases: NCI tumour cell line growth inhibition, 48 h
U-251 = system: U-251
MDA-MB-231 = system: MDA-MB-231
OVCAR-3 = system: OVCAR-3
MDA-N = system: MDA-N
HL-60 = system: HL-60
NCI-H460 = system: NCI-H460
SF-539 = system: SF-539
UO-31 = system: UO-31
M14 = system: M14
LOX IMVI = system: LOX IMVI
RXF 393 = system: RXF 393
UACC-257 = system: UACC-257
SK-MEL-28 = system: SK-MEL-28
CAKI-1 = system: CAKI-1
RPMI-8226 = system: RPMI-8226
K562 = system: K562
SK-MEL-2 = system: SK-MEL-2
KM12 = system: KM12
MDA-MB-435 = system: MDA-MB-435
UACC-62 = system: UACC-62

| SMILES | GI50 (U-251) | GI50 (MDA-MB-231) | GI50 (OVCAR-3) | GI50 (MDA-N) | GI50 (HL-60) | GI50 (NCI-H460) | GI50 (SF-539) | GI50 (UO-31) | GI50 (M14) | GI50 (LOX IMVI) | GI50 (RXF 393) | GI50 (UACC-257) | GI50 (SK-MEL-28) | GI50 (CAKI-1) | GI50 (RPMI-8226) | GI50 (K562) | GI50 (SK-MEL-2) | GI50 (KM12) | GI50 (MDA-MB-435) | GI50 (UACC-62) |
| --- | --- | --- | --- | --- | --- | --- | --- | --- | --- | --- | --- | --- | --- | --- | --- | --- | --- | --- | --- | --- |
| Cc1ccc([S@+]([O-])c2occc2C=O)cc1 | 12.9 µM (inactive) | 8.65 µM (inactive) | 2.81 µM (inactive) | 4.44 µM (inactive) | 1.8 µM (inactive) | 9.91 µM (inactive) | 11.4 µM (inactive) | 11.1 µM (inactive) | 6.9 µM (inactive) | 1.81 µM (inactive) | 13.3 µM (inactive) | 12.4 µM (inactive) | 3.82 µM (inactive) | 17.1 µM (inactive) | 1.91 µM (inactive) | 1.85 µM (inactive) | 15 µM (inactive) | 17.2 µM (inactive) | 7.55 µM (inactive) | 15.5 µM (inactive) |
| Fc1ccc(N2C(=S)SC(=N\c3ccccc3)/C2=N/c2ccccc2)cc1 | > 87.7 µM (inactive) | > 100 µM (inactive) | 41.6 µM (inactive) | > 100 µM (inactive) | 53.8 µM (inactive) | > 100 µM (inactive) | > 100 µM (inactive) | > 86.1 µM (inactive) | > 100 µM (inactive) | > 100 µM (inactive) | > 100 µM (inactive) | > 67.1 µM (inactive) | > 100 µM (inactive) | > 100 µM (inactive) | 32.8 µM (inactive) | 14.9 µM (inactive) | > 40.5 µM (inactive) | 73.1 µM (inactive) | > 100 µM (inactive) | > 92 µM (inactive) |
| CCOC(=O)c1cc2c([N+](=O)[O-])c(N)ccc2s1 | > 100 µM (inactive) | > 100 µM (inactive) | > 100 µM (inactive) | > 100 µM (inactive) | > 100 µM (inactive) | > 100 µM (inactive) | > 100 µM (inactive) | > 100 µM (inactive) | > 100 µM (inactive) | > 100 µM (inactive) | > 100 µM (inactive) | > 100 µM (inactive) | > 100 µM (inactive) | > 100 µM (inactive) | > 100 µM (inactive) | > 100 µM (inactive) | > 100 µM (inactive) | > 100 µM (inactive) | > 100 µM (inactive) | > 100 µM (inactive) |
| Nc1ncc(CN2CCOCC2)c(-c2ccccc2O)n1 | > 100 µM (inactive) | > 100 µM (inactive) | > 100 µM (inactive) | > 100 µM (inactive) | > 100 µM (inactive) | > 100 µM (inactive) | > 100 µM (inactive) | > 100 µM (inactive) | > 100 µM (inactive) | > 100 µM (inactive) | > 100 µM (inactive) | > 100 µM (inactive) | > 100 µM (inactive) | > 100 µM (inactive) | > 100 µM (inactive) | > 100 µM (inactive) | > 100 µM (inactive) | > 100 µM (inactive) | > 100 µM (inactive) | > 100 µM (inactive) |
| CS(=O)(=O)O.[Ag] | 16.3 µM (inactive) | 21.3 µM (inactive) | 23.8 µM (inactive) | 7.1 µM (inactive) | 2.79 µM (inactive) | 20.2 µM (inactive) | 17.3 µM (inactive) | 1.78 µM (inactive) | 3.17 µM (inactive) | 3.09 µM (inactive) | 18.8 µM (inactive) | 10.2 µM (inactive) | 18.4 µM (inactive) | 17.8 µM (inactive) | 2.49 µM (inactive) | 2.23 µM (inactive) | 15.4 µM (inactive) | 29 µM (inactive) | 2.91 µM (inactive) | 17.9 µM (inactive) |
| COc1ccc(NS(=O)(=O)c2ccc3ncn(NS(=O)(=O)c4ccc(I)cc4)c(=O)c3c2)cc1 | > 100 µM (inactive) | > 100 µM (inactive) | > 100 µM (inactive) | > 100 µM (inactive) | 49.3 µM (inactive) | > 100 µM (inactive) | > 100 µM (inactive) | 43.3 µM (inactive) | > 100 µM (inactive) | 8.77 µM (inactive) | > 100 µM (inactive) | > 100 µM (inactive) | > 100 µM (inactive) | > 100 µM (inactive) | 6.03 µM (inactive) | 7.26 µM (inactive) | > 100 µM (inactive) | 8.89 µM (inactive) | 84.1 µM (inactive) | 95.9 µM (inactive) |
| O=P1(NCCCl)OCCC(OO)N1CCCl (stereo not given) | 32.4 µM (inactive) | > 100 µM (inactive) | 23.2 µM (inactive) | 29.3 µM (inactive) | 6.82 µM (inactive) | 37.8 µM (inactive) | 16.9 µM (inactive) | > 64.3 µM (inactive) | 21.9 µM (inactive) | 1.82 µM (inactive) | 17.8 µM (inactive) | 32.1 µM (inactive) | 18.9 µM (inactive) | 18.3 µM (inactive) | 7.03 µM (inactive) | 19.4 µM (inactive) | 37.7 µM (inactive) | > 100 µM (inactive) | 56.1 µM (inactive) | 21.1 µM (inactive) |
| CN(C)Cc1cc(/N=N/c2ccccc2)cc(CN(C)C)c1O | 99.1 µM (inactive) | 71 µM (inactive) | 27.4 µM (inactive) | > 100 µM (inactive) | 21.9 µM (inactive) | 47.1 µM (inactive) | > 100 µM (inactive) | 55 µM (inactive) | > 100 µM (inactive) | 47.2 µM (inactive) | 44.7 µM (inactive) | > 100 µM (inactive) | > 100 µM (inactive) | > 100 µM (inactive) | 80.5 µM (inactive) | 97.5 µM (inactive) | 64.4 µM (inactive) | 98.6 µM (inactive) | > 100 µM (inactive) | > 100 µM (inactive) |
| C/C1=C\[C@H](C)C[C@H](C)OC(=O)[C@H](C)NC(=O)[C@@H](Cc2ccc(O)c(Br)c2)N(C)C(=O)[C@H](C)NC(=O)[C@@H](C)C1 | 0.00991 µM (active) | 0.0211 µM (active) | 0.0179 µM (active) | 0.0982 µM (active) | 0.00447 µM (active) | 0.00701 µM (active) | 0.053 µM (active) | 0.0538 µM (active) | 0.118 µM (active) | 0.00533 µM (active) | 0.0656 µM (active) | 0.0927 µM (active) | 0.00659 µM (active) | 0.0149 µM (active) | 0.0295 µM (active) | 0.0836 µM (active) | 0.0502 µM (active) | 0.731 µM (active) | 0.0735 µM (active) | 0.146 µM (active) |
| C=C(CN(C)C)C(=O)c1ccc(OC)cc1 | 10.3 µM (inactive) | 11.6 µM (inactive) | 2.77 µM (inactive) | 7.46 µM (inactive) | 0.198 µM (active) | 21.8 µM (inactive) | 4.1 µM (inactive) | 2.55 µM (inactive) | 2.5 µM (inactive) | 4.49 µM (inactive) | 10 µM (inactive) | 5.31 µM (inactive) | 3.49 µM (inactive) | 1.5 µM (inactive) | 2.11 µM (inactive) | 0.622 µM (active) | 4.61 µM (inactive) | 14.5 µM (inactive) | 10.5 µM (inactive) | 9.33 µM (inactive) |
| COC(=O)C1CCC(=O)NCCCCC(NC(=O)C(N)CC(=O)O)C(=O)N1 (stereo not drawn) (H-Asp-Lys-Glu-OMe; lactam 2-3; configuration not given here) | > 100 µM (inactive) | > 100 µM (inactive) | > 100 µM (inactive) | > 100 µM (inactive) | 29.4 µM (inactive) | 9.68 µM (inactive) | > 100 µM (inactive) | > 100 µM (inactive) | > 100 µM (inactive) | > 100 µM (inactive) | > 100 µM (inactive) | > 100 µM (inactive) | > 100 µM (inactive) | 82 µM (inactive) | > 100 µM (inactive) | > 100 µM (inactive) | > 100 µM (inactive) | > 100 µM (inactive) | > 100 µM (inactive) | 28.2 µM (inactive) |
| CCC(C)C(NC(=O)C(NC(=O)C(CC(N)=O)NC(=O)CN)C(C)O)C(=O)NC(C(=O)NC(C)C(=O)NC(C(=O)NC(CCC(=O)O)C(=O)NC(CC(C)C)C(=O)NC(CC(=O)O)C(=O)NC(C(=O)NC(Cc1ccc(O)cc1)C(=O)N1CCCC1C(=O)O)C(C)O)C(C)C)C(C)C (stereo not given) (H-GNTIVAVELDTYP-OH; configuration not given here) | > 50 µM (inactive) | 18.9 µM (inactive) | > 50 µM (inactive) | > 50 µM (inactive) | > 50 µM (inactive) | > 50 µM (inactive) | > 50 µM (inactive) | > 50 µM (inactive) | > 50 µM (inactive) | > 50 µM (inactive) | > 50 µM (inactive) | > 50 µM (inactive) | > 50 µM (inactive) | > 50 µM (inactive) | > 50 µM (inactive) | > 50 µM (inactive) | > 50 µM (inactive) | > 50 µM (inactive) | > 50 µM (inactive) | > 50 µM (inactive) |
| CCC(CO)Nc1nc(NCc2ccccc2)c2ncn(C(C)C)c2n1 (stereo not drawn) [(RS)-ROSCOVITINE] | 27.9 µM (inactive) | 25.8 µM (inactive) | 9.23 µM (inactive) | 30.3 µM (inactive) | 17.5 µM (inactive) | 16.2 µM (inactive) | 12.6 µM (inactive) | 12.4 µM (inactive) | 16.8 µM (inactive) | 16.5 µM (inactive) | 7.66 µM (inactive) | 30.3 µM (inactive) | 12.8 µM (inactive) | 17.4 µM (inactive) | 22.6 µM (inactive) | 46.6 µM (inactive) | 20.7 µM (inactive) | 12.7 µM (inactive) | 23.4 µM (inactive) | 12.8 µM (inactive) |
